Reference: patent US10717997B2, “Method for storing gaseous hydrogen through producing methanoate (formate)” (Johann Wolfgang Goethe-Universität, priority 2013, dated 2020)
Entries after “also recorded” stand apart in the source; their conditions may differ.

Tested on: cell suspensions of A. woodii
Assay: Formate production by whole cell catalysis, cell suspensions of A. woodii converting H2 and CO2
Type: cell-based, Acetobacterium woodii
Conditions: ETH2120 30 μM
Protocol: Cell suspensions of A. woodii (1 mg/ml) were incubated using a gas phase of 0.8×10^5 Pa H2 and 0.2×10^5 Pa CO2 (1A). Adding the Na^+ ionophore ETH2120 (30 μM) gives rise to the production of up to 8 mM formate and the production of acetate stopped (1B). For experiments with whole cells, the inventors used cell suspensions of A. woodii for the conversion of H2 and CO2 to formate. The energy metabolism of A. woodii is strictly sodium ion dependent, and the ATP synthase uses Na^+ as the coupling ion. Thus, by omitting sodium ions in the buffer or by adding sodium ionophores (the inventors used the ionophore ETH2120 in this study), it is possible to switch off the energy metabolism specifically. Cells suspended in imidazole buffer (50 mM imidazole, 20 mM MgSO4, 20 mM KCl, 4 mM DTE, pH 7.0) containing 20 mM NaCl converted H2+CO2 to acetate, and only small amounts of formate were produced from a gas phase of 0.8×10^5 Pa II2 and 0.2×10^5 CO2. […] In agreement with the results obtained from the purified enzyme, foimate production was also observed when hydrogen was absent and the electron donor was CO but with lower rates compared to hydrogen as electron donor.

In the case of `O=C(COc1ccccc1OCC(=O)N(C1CCCCC1)C1CCCCC1)N(C1CCCCC1)C1CCCCC1` [ETH2120, N,N,N′,N′-Tetracyclohexyl-1,2-phenylenedioxydiacetamide], the “production of formate (concentration reached)” value (A. woodii cell suspension (1 mg/ml), gas phase 0.8×10^5 Pa H2 and 0.2×10^5 Pa CO2) is reported as “up to 8 mM”, the acetate production (A. woodii cell suspension (1 mg/ml), gas phase 0.8×10^5 Pa H2 and 0.2×10^5 Pa CO2, imidazole buffer with 20 mM NaCl) is reported as “stopped; also recorded: ceased almost completely” and the “initial rate of formate production” value (A. woodii cells in imidazole buffer with 20 mM NaCl, gas phase 0.8×10^5 Pa H2 and 0.2×10^5 CO2) is reported as 2 μmol/min×mg cell protein.
